Measured values: patent EP2511272B1, “Synthetic analogues of abscisic acid with anti-inflammatory and insulin release stimulation effects on human cells” (Universita' degli Studi di Genova, priority 2011, dated 2012)

Test system: human granulocytes
Assay: Determination of intracellular cAMP levels (inhibition of ABA-induced cAMP increase)
Type: cell-based
Description: Human granulocytes, after being incubated overnight (ON) in DMEM/F12 supplemented with 10% of foetal bovine serum (FCS), penicillin (50 units/ml) and streptomycin (50 µg/ml) (DMEM/F12 complete), were centrifuged at 200xg for 5 min and were then resuspended in HBSS (Hanks' Balanced Salt Solution) with calcium and magnesium (15 x 10^6 cells /200 µl) and preincubated for 5 minutes at 25 °C in the presence of 10 µM of phosphodiesterase inhibitor 4-[(3-butoxy-4-methoxyphenyl)-methyl]-2-imidazolidinone (Ro-20-1724). Two hundred (200) µl of suspension were then drawn and were incubated for 1 minute with 1 µM ABA (Sigma-Aldrich) either alone, or in the presence of decreasing concentrations (from 50 µM to 0.01 nM) of test compounds obtained according to the preceding examples. The reaction was terminated by the addition of 13 µl of perchloroacetic acid (PCA) to the end concentration of 0.6 M at 4 °C.
The cell lysates were centrifuged for 5 min at 17,000 x g at 4 °C and the supernatant was adjusted at pH 7.5 with 3 M potassium carbonate (K2CO3). The reaction led to the development of gas CO2 and the formation of a white precipitate of potassium perchlorate (KClO4), which was removed by a 5-minute centrifugation at 17,000xg at 4 °C.
Intracellular concentration of cAMP was determined by means of the competitive radioimmunological test [^3H]cAMP assay system (Amersham, GE Healthcare), following manufacturer's instructions..
The experiments were carried out three times, in triplicate.
Tests were carried out on human granulocytes according to the above explained procedure, in which the production of cAMP was compared to a group of control cells in case of treatment with ABA 1 µM and with ABA 1 µM + tested compound 50 µM.

Work on `CC(=C/C(=O)O)/C=C/C1(O)C(C)(C)CC(=O)C2OC21C` (single isomer, unassigned) [Example 1, trans, 2'α,3'α-dihydro-2'α,3'α-epoxyabscisic acid] yielded an inhibition at 50 µM (ABA 1 µM + tested compound 50 µM, read-out: inhibition (production of cAMP)) of 100%, an inhibition at 10 pM (cAMP increase induced by 1 µM ABA, compound 0.01 nM) of 0% and an inhibition at 0.0001 µM (cAMP increase induced by 1 µM ABA, compound 0.1 nM) of 25%. It also gave an inhibition at 0.001 µM (cAMP increase induced by 1 µM ABA, compound 1 nM) of 57%, an inhibition at 0.1 µM (cAMP increase induced by 1 µM ABA, compound 100 nM) of 100% and an inhibition at 1 µM (cAMP increase induced by 1 µM ABA, compound 1 µM) of 100%. It also gave an inhibition at 5 µM (cAMP increase induced by 1 µM ABA, compound 5 µM) of 100%, an inhibition at 10 µM (cAMP increase induced by 1 µM ABA, compound 10 µM) of 100% and an IC50 (increase in cAMP concentration induced by 1 µM ABA) of about 1 nM.
